For one assay, the system named is Orobanche seeds. Nature of the assay: Orobanche germination assay. The conditions noted are these: 0.6 ml aqueous solution 0.0001 mg/1, 7 days at 18-20° C. in the dark; seeds with emerged radicle; water control 11%. It is filed as in vivo. The method, then:
Orobanche seeds were surface sterilised with 2% sodium hypochlorite containing 0.02% (v/v) of polysorbate 20 surfactant (Tween 20™; Sigma-Aldrich Co LLC, St Louis, Mo., United States of America) for 5 min then rinsed (5×) with sterile ddH2O and dried for 30 min in a laminar air flow cabinet. Subsequently, between 50 and 100 seeds were spread on a sterile […] glass fibre disk and placed in petri dishes (9 cm diameter) lined with filter paper wetted with 3 mL of ddH2O. 1 ml of gibberellic acid (GA3) (30 mg/L) was applied to the seeds and the petri dishes then sealed with parafilm and incubated at 18-20° C. in the dark for preconditioning. After 7 days, surface-sterilised seeds of Arabidopsis W/T, SDG8i transgenics, sorghum and & stapfianus were placed on 5 cm glass microfiber disks and incubated on ¼ MS media with 0.5% sugar and 0.8% agar. For controls, 0.6 ml aqueous solution of synthetic strigolactone analog GR24 (Chiralix B.V., Toernooiveld 1006525 EC Nijmegen, The Netherlands) (0.0001 mg/1) or sterile water was applied to petri dishes with preconditioned Orobanche seeds. The plates were then resealed with parafilm and wrapped with foil and incubated at 18-20° C. for 7 days for germination. Orobanche seed germination was determined under a stereoscopic microscope by counting the number of seeds having an emerged radicle.

Assay [1] has as its system enzyme encoded by SDG8i (SL-UGT). The experiment in a line: UGT enzyme assay (coupled pyruvate kinase/lactate dehydrogenase, NADH absorbance at 340 nm) with N. benthamiana leaf protein extract expressing SDG8i. In kind it is biochemical, Sporobolus stapfianus. The method, then:
UGT was produced in N. benthamiana leaf tissue by transient transfection using a viral-based MagnICON vector system (Icon Genetics GmbH, Halle/Salle, Germany).
Briefly, the UGT coding sequence was amplified from the SDG8i cDNA (Le et al., 2007) and ligated into the MagnICON plasmid. The plasmid was then cultured in Escherichia coli DH5α (ATCC Catalog No 53868) and electroporated into Agrobacterium tumefaciens LBA4404). Subsequently, Nicotiana benthamiana leaves were covered in aluminium foil for 3 days before being co-infiltrated with the plasmid and the apoplast-targeting and intergrase modules of the MagnICON system (Marillonnet et al. 2005). Leaves were then harvested 5 days after the co-infiltration and homogenised in ice-cold protein extraction buffer. Following removal of the insoluble material by centrifugation at 13,000 rpm at 4° C. for 5 minutes, protein assays were carried out with Bio-Rad Protein Assay Dye (Bio-Rad Laboratories Inc, Hercules, Calif., United States of America) using bovine serum albumin (BSA) as reference. Protein extracts were analysed by SDS-PAGE using the standard methods described by Sambrook et al. (1989).
UGT activity was measured using a coupled assay with pyruvate kinase and lactate dehydrogenase with the reaction rate monitored by the change in NADH absorbance at 340 nm (Jackson et al. 2001). Activity in millikatals kg^−1 was calculated using the extinction coefficient […] for NADH. The background activity of the extracts, monitored by the measurement of the rate without substrate addition, was subtracted from the reaction rate.
To investigate the catalytic function of the enzyme encoded by the SDG8i cDNA, the glucosyltransferase activity of N. benthamiana leaf protein extracts infiltrated with a CaMV 35S promoter driven SDG8i construct was tested against a number of substrates and compared with activity in extracts infiltrated with a vector-only control. The assay utilised a linked enzymic reaction as described in the Materials and Methods. […]

The test system of assay [2] is SDG8i promoter-driven GUS reporter (prSDG8i-GUS). The experiment in a line: Activation of GUS expression driven by prSDG8i in onion epidermal peels. It is filed as cell-based. Particulars: onion peels containing prSDG8i-GUS construct by itself, MJ added to suspension. The text has this:
The promoter sequence (1660 nt) of SDG8i was placed upstream of the GUS reporter gene in a construct designated prSDG8i-GUS. This construct was transiently co-transformed into onion epidermal peels along with the pMDC32:7y or pMDC32:10y constructs which contained either SDG10y or SDG7y under the transcriptional regulation of the CaMV 35S promoter which is constitutively active in onion cells. The formation of a blue precipitate indicates activation of the SDG8i promoter-driven GUS reporter gene by the SDG10y or SDG7y transcription factor constructs.
Agrobacterium-mediated transient transformation was achieved by immersing onion peels in the Agrobacterium suspensions containing these constructs in 10 mM MES buffer (pH 5.5) and 200 μM acetosyringone at 28° C. in the dark for 2/3 days. A 35S:GUS control construct was included in these experiments and the hormone methyl jasmonate (MJ) was also added to some suspensions. After 2 days, the onion peels were soaked in a GUS staining solution and left at 28° C. in the dark. The onion peels were examined every 2 hours to monitor the formation of blue precipitate.

Regarding `CC1=CC(O/C=C2/C(=O)OC3c4ccccc4CC23)OC1=O` (centres unmarked) [GR24], the Orobanche seed germination in the assay with Orobanche seeds turned out to be 95%. Also, in assay [1] (GR24 as substrate of SDG8i extract, FIG. 1B), the Km was 349 µM. Further, the Vmax in assay [1] (GR24 as substrate of SDG8i extract, FIG. 1B, method: activity calculated in millikatals kg^-1) is 5.67. For the same compound, the glycosylation activity result in assay [1] (SDG8i extract versus vector-only control, background endogenous NADH oxidase subtracted, FIG. 1A) was “substantial glycosylation activity”.

For the compound `CC/C=C\CC1C(=O)CCC1CC(=O)OC` (centres unmarked) [MJ, methyl jasmonate], the GUS activity entry in assay [2] is listed as “elevated”.

By Km is commonly meant the substrate concentration at which the rate is half of its maximum.

These data come from patent US20170029839A1, “METHOD FOR IMPROVING CROP PRODUCTIVITY” (priority 2013, published 2017).
